US20110288151A1, “METHODS OF CHARACTERIZING BREAST CANCER AND IDENTIFYING TREATMENTS FOR SAME” (The Trustees of the University of Pennsylvania, priority 2008, published 2011)

Key:
Rac1 = test: Rac1-GTP GST pull down, HRG-treated MCF-10A cells; assay type: cell-based, human; settings: serum-starved MCF-10A cells, HRG 100 ng/ml 5 min, pretreatment (1 h; PTX 24 h)
Method: The image of the immunoblot depicts Rac1-GTP levels as determined by a GST pull down assay of serum-starved MCF-10A cells treated with HRG (100 ng/ml, 5 min), with or without pretreatment with PI3K inhibitor wortmannin, EGFR inhibitor AG1478, PI3Kγ inhibitor 5-quinoxalin-6-ylmethylene-thiazolidine-2,4-dione (1 mM, 1 h), or PTX (24 h) (FIG. 17).

Rac [1] = test: Rac-GTP pull-down, HRG-treated MCF-7 cells; assay type: cell-based, human; settings: HRG 100 ng/ml, 5 min, pharmacological inhibitor
Method: FIG. […] Rac-GTP levels were determined by a Rac-GTP pull-down assay of lysates of the treated cells. […]
As described above, Gβγ subunits are known to activate PI3Kγ. As Rac activation by HRG is affected by PTX as shown in Example 10, the involvement of PI3Kγ in the response was investigated.
To further investigate the role of PI3Kγ, PI3Kγ depleted MCF-7 cell lines were generated using PI3Kγ (#1 and #2) and non-target sequence (NTS) control shRNA lentiviruses (Sigma) (FIG. 16B).
To determine whether CXCR4 is involved in HRG responses, CXCR4 expression was knocked down using RNAi in MCF-7 cells. […] Such a mechanism has important implications in tumorigenesis and metastatic dissemination.

P-Rex1 = P-Rex1 sub-cellular localization in MCF-7 cells (fluorescence microscopy); assay type: cell-based, human; settings: HRG 10 ng/mL 10 min, Wortmannin 1 μM, antibodies 10 μg/mL 1 hr
Method: Cells were then fixed and stained with the antibody of Example 1 to detect P-Rex1 and subject to staining with a secondary Cy2-conjugated antibody, and visualized with fluorescence microscopy. […] (FIG. 12A and FIG. 12B).
To test whether this effect of HRG on P-Rex1 localization was dependent on PI3K, MCF-7 breast cancer cells were serum starved for 48 hours, treated for 10 minutes with HRG (10 ng/mL), with or without Wortmannin (1 μM), an anti-ErbB3 blocking antibody (10 μg/mL, 1 hr) or control IgG and stained and visualized (FIG. 12B).

T-47D cells = test: Membrane ruffles in T-47D cells; assay type: cell-based, human; settings: T-47D cells treated with HRG or EGF
Method: HRG is known to cause morphological changes, including the formation of lamellipodia and membrane ruffles.
FIG. 14E is a bar graph depicting reduced colony formation, in response to treatment with HRG (10 ng/mL), in the P-Rex1 depleted cell lines of FIG. 14A as compared to control cells.

Rac [2] = test: Rac activation by HRG or EGF in breast cancer cell lines (GST-Raf-PBD pull-down); assay type: cell-based; settings: various breast cancer cell lines, HRG 10 ng/mL or EGF 100 ng/mL, 0-5 minutes, n=3

**Q.** Which results are given for O=C1NC(=O)C(=Cc2ccc3nccnc3c2)S1 [5-quinoxalin-6-ylmethylene-thiazolidine-2,4-dione]?
**A.** sensitivity of Rac1 activation by HRG (Rac1): insensitive; Rac activation by HRG (Rac [1]): dose-dependently reduced Rac activation by HRG

**Q.** Which “effect on HRG-induced P-Rex1 localization” value (P-Rex1) does the source give for CC(C)(C)n1nc(-c2ccc(Cl)cc2)c2c(N)ncnc21 [PP2] here?
**A.** Its value is “did not have such an effect”.

**Q.** Which “sensitivity of Rac1 activation by HRG” value (Rac1) does the source give for COc1cc2ncnc(Nc3cccc(Cl)c3)c2cc1OC [AG1478] here?
**A.** Its value is “blocked Rac activation”.

**Q.** With “EGF: epidermal growth factor (NSDSECPLSHDGYCLHDGVCMYIEALDKYACNCVVGYIGERCQYRDLKWWELR; UniProt P01133 971-1023, looked up)” as the compound, how does the “ruffle formation on ligand treatment” value (T-47D cells) read?
**A.** Its value is “characteristic ruffles were observed”.

**Q.** And the Rac activation (Rac [2])?
**A.** Its Rac activation is “activate Rac”.
